A short description of this data set: gradient 5% acetonitrile 3 min, to 50% in 2 min, to 85% in 15 min, held 3 min, 100 µL/min. The following applies: column: Zorbax Extend-C18 2.1 x 50 mm; eluents: water / acetonitrile, 0.1% formic acid. In a few lines:
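The mobile phases were water and acetonitrile, each with 0.1% formic acid, pumped at 100 μL/min through a Zorbax Extend-C18 column (2.1 × 50 mm, 1.8 μm). Pure standards were injected as mixtures of ~100 molecules and detected by a quadrupole time-of-flight mass spectrometer in positive and negative ionization mode. Retention time came from computationally picked adduct peaks, each inspected by hand.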
`Cc1noc(-c2ccc(N3CCCC(C(=O)NC(C)c4ccco4)C3)nc2)n1` (stereo not given) had an RP-LC retention time of 746 s.

Take `CCOC(=O)C1CCN(c2nc(=O)[nH]c3ccccc23)CC1`: the RP-LC retention time was found to be 646 s.

Turning to `CCCn1cc(C(=O)NCc2cccs2)c2cccnc21`, the RP-LC retention time stood at 799 s.

`Cc1noc(/C=C\c2ccc(S(=O)(=O)N3CCOCC3)cc2)c1NC(=O)C1CC1` displayed an RP-LC retention time of 777 s.

Compound `O=C(NCc1ccc2c(c1)OCO2)c1ccc2ncnc(N3CCCC3)c2c1` registered an RP-LC retention time of 630 s.

With `CCOC(=O)c1ccc(NC(=O)Cn2nc(N3CCCC(C)C3)c3ccccc3c2=O)cc1` (stereo not given), the RP-LC retention time was 1200 s.

As to `COc1cccc(-n2c(N3CCCC(C(=O)Nc4ccc(F)cc4)C3)nc3ccsc3c2=O)c1` (stereo not given), the RP-LC retention time was 932 s.

`Cc1ccc2ncn(C3CCN(C(=O)Nc4cc(Cl)ccc4C)CC3)c(=O)c2c1`: the RP-LC retention time was 911 s.

For `Cc1[nH]c(C(=O)N2CCCC(C(=O)NCCCc3ccccc3)C2)c(C)c1C(=O)OC(C)C` (stereo not given), the RP-LC retention time was 892 s.

Compound `CC(=O)c1ccc(NC(=O)C2CC(=O)N(c3ccc4c(c3)CCN4C(C)=O)C2)cc1` (stereo not given) came in with an RP-LC retention time of 670 s.

Compound `CCOC(=O)C1=C(CN2CCCCCC2)NC(=O)NC1c1ccc(OC(C)C)cc1` (stereo not given) showed an RP-LC retention time of 679 s.

In turn, `O=c1c2scc(-c3ccc(Br)cc3)c2ncn1Cc1ccccn1` gave an RP-LC retention time of 938 s.

Compound `Cc1noc(COC2CCN(C(=O)c3ccc4ccccc4n3)CC2)n1` had an RP-LC retention time of 707 s.

For the compound `O=C(CCSc1ccc(F)cc1)Nc1ccccc1-c1nc2ccccc2[nH]1`, the RP-LC retention time was 939 s.

On to `Cc1ccc(F)cc1S(=O)(=O)N1CC(F)(F)C[C@H]1CN1CCc2ccccc2C1`, for which the RP-LC retention time was found to be 795 s.

For the compound `CCOc1cc(-c2cccc(Cl)c2)nc2ccc(C(=O)N3CCN(c4ccccn4)CC3)cc12`, the RP-LC retention time is 692 s.

In turn, `COc1ccc(S(=O)(=O)N2C[C@@H](F)C[C@H]2C(=O)N2CCOCC2)cc1` showed an RP-LC retention time of 669 s.

Compound `CCn1cc(-c2nc(C)c(C(=O)Nc3ccc(F)cc3F)s2)c2cccnc21` returned an RP-LC retention time of 1010 s.

`Cc1cc(-c2nnc(C3CC3)o2)c(C)n1CC(=O)NC(C)c1ccccc1` (stereo not given) came in with an RP-LC retention time of 790 s.

Compound `Cc1sc(NC(=O)c2ccc(Br)cc2)nc1-c1ccc2c(c1)NC(=O)CO2` had an RP-LC retention time of 972 s.

Regarding `C(=C\c1cccs1)/c1nc(-c2cccc(-c3ccn[nH]3)c2)no1`, the RP-LC retention time came to 1010 s.

As to `Cc1cccc(C)c1NC(=O)N1CCCC1c1nncn1C1CCCC1` (stereo not given), the RP-LC retention time amounted to 722 s.

Regarding `CCNc1cc(N2CCC(CCC(=O)NCC3CC3)CC2)ncn1`, the RP-LC retention time turned out to be 588 s.

Compound `CN1CCCc2cc(C(=O)NCc3ccccc3Cl)sc21` registered an RP-LC retention time of 964 s.

With `CCCn1cc(C(=O)NCc2ccc(N3CCOCC3)cc2)c2cccnc21`, the RP-LC retention time stood at 734 s.

For the compound `COC(=O)c1cnc2nc(C)ccc2c1NCc1cccc(Cl)c1`, the RP-LC retention time stood at 733 s.

In the case of `O=C(Nc1ccc(F)cc1)C1CCCN(c2ccc(=O)n(-c3ccc(F)cc3)n2)C1` (stereo not given), the RP-LC retention time is 849 s.

`O=C(Nc1cccnc1)c1ccc(Cl)c(S(=O)(=O)N2CCOCC2)c1` had an RP-LC retention time of 589 s.

In turn, `Cc1noc2nc(C)n(CC(=O)Nc3ccc(F)cc3F)c(=O)c12` registered an RP-LC retention time of 767 s.

As for `Cc1ccccc1OCCCC(=O)Nc1nc(-c2ccccc2)cs1`, the RP-LC retention time worked out at 1180 s.

Regarding `O=C(CC1CCN(C(=O)c2ccc3oc(-c4ccccc4)nc3c2)CC1)NC1CC1`, the RP-LC retention time came to 728 s.

In the case of `O=C(CSc1nnc(NC(=O)C2CCCCC2)s1)Nc1ccc2c(c1)OCO2`, the RP-LC retention time turned out to be 802 s.

In turn, `O=C(NCCc1ccco1)C1CCN(Cc2cc3ccccc3n2Cc2ccccc2Cl)CC1` returned an RP-LC retention time of 841 s.

Compound `CCC(C)NC(=O)C1(c2ccc(NS(C)(=O)=O)cc2)CCCCC1` (stereo not given) had an RP-LC retention time of 736 s.

For `CCN1CCC(CCNC(=O)C2CCc3sc(C(=O)N4CCCC4)cc3C2)CC1` (stereo not given), the RP-LC retention time was 582 s.

`O=C(N[C@H]1C[C@@H]2C[C@H]1CN2S(=O)(=O)c1ccccc1C(F)(F)F)c1ccccc1`: the RP-LC retention time stood at 921 s.

In turn, `O=C(NC1CC1)c1nc(-c2cccs2)cs1` registered an RP-LC retention time of 835 s.

`Cn1cc2c3c(cccc31)CN(C(=O)c1ccc(F)c(Cl)c1)CC2` returned an RP-LC retention time of 1070 s.

Consider `Cc1ccc(N2CC(C(=O)N(C)C)CC2=O)cc1` (stereo not given), for which the RP-LC retention time came to 673 s.

The compound `O=C(NCC1CCCO1)c1nc(-c2ccnc(N3CCCCC3)c2)no1` (stereo not given) showed an RP-LC retention time of 654 s.

For the compound `CCN(CC)C(=O)N1CC(c2nc(-c3ccncc3)nn2C)C1`, the RP-LC retention time was 566 s.

On to `O=C(CC1CCCCC1)Nc1ccc(-c2nc(-c3ccccc3)co2)cc1`, for which the RP-LC retention time was 1270 s.

`COC(=O)c1cnn(-c2ccc(C)cc2)c1N` displayed an RP-LC retention time of 704 s.

Consider `O=C(NCCc1csc(C2CCN(C(=O)C3CCCO3)CC2)n1)C1CC1` (stereo not given), for which the RP-LC retention time came out at 603 s.

Take `COc1ccc(Cl)cc1NC(=O)N1CCc2c(c(-c3nnc(-c4ccc(F)cc4)o3)nn2C)C1`: the RP-LC retention time worked out at 993 s.

`CCn1c(CCNC(=O)c2ccccc2)nc2cccnc21`: the RP-LC retention time was 598 s.

`COc1ccc(F)cc1S(=O)(=O)N1CCc2nn(C)c(=O)n2CC1` gave an RP-LC retention time of 673 s.

For the compound `CCOc1ccc(/C=C/C(=O)Nc2nc(-c3ccc4c(c3)NC(=O)C(C)O4)cs2)cc1OC` (stereo not given), the RP-LC retention time worked out at 927 s.

With `CCOC(=O)N1CCN(c2ncc(C(=O)NCc3ccccc3)c(N)n2)CC1`, the RP-LC retention time was 656 s.

`COc1cc(C(=O)NC2CCN(c3cc(-c4ccccc4)[nH]n3)C2)cc(OC)c1OC` (stereo not given) gave an RP-LC retention time of 688 s.

`Cc1c(C(=O)Nc2ccc(CC(=O)NC3CC3)cc2)cnn1-c1ccccc1` yielded an RP-LC retention time of 675 s.

Compound `CN(C)c1ccc(CCCNC(=O)C2CC2)cc1` gave an RP-LC retention time of 525 s.

`COc1ccc(CC(=O)Nc2cnn(-c3ncc(N(C)C)cn3)c2)cc1Cl`: the RP-LC retention time was determined as 740 s.

`COC(=O)C1=CN(c2ccc(OC)c(OC)c2)c2ccccc2S1(=O)=O` returned an RP-LC retention time of 763 s.

Regarding `O=C(Nc1cnn(-c2ncc(N3CCCC3)cn2)c1)Nc1ccccc1C(F)(F)F`, the RP-LC retention time turned out to be 850 s.

As for `O=C(Nc1ccccc1)c1ccc(N2CCC(NCc3ccc(F)c(F)c3)C2)nc1` (stereo not given), the RP-LC retention time worked out at 568 s.

As for `O=C1CCCC(=O)N1CCS(=O)(=O)NCc1cccc(Oc2ccc(F)cc2)c1`, the RP-LC retention time amounted to 840 s.

Take `O=C(Nc1cccc(Cl)c1)c1c(O)c2cccnc2n(-c2ccc(F)cc2)c1=O`: the RP-LC retention time stood at 1320 s.

As for `Cc1c(C2CCN(C(=O)c3ccc(Br)cc3)CC2)noc1N`, the RP-LC retention time was found to be 728 s.

Regarding `CCn1cc(-c2nc(C)c(C(=O)NCc3ccncc3)s2)c2cccnc21`, the RP-LC retention time was 616 s.

The values are drawn from the METLIN SMRT retention time set (Domingo-Almenara et al. 2019).
